Data on 64 compounds can be found in patent US8765779B2, “Tricyclic derivatives and their pharmaceutical use and compositions” (Cephalon, Inc., priority 2009, dated 2014).

What is called Ki is a measure of affinity in units of concentration, obtained from inhibition or displacement.

Each structure is given as a SMILES string. Counter-ions that a name gives are not always drawn.

For the first assay, the target named is T1, human 5-HT6 receptor (Homo sapiens, UniProt P50406).
T1 construct: host or cells: CHO-K1 cells, stably transfected; membranes prepared in house
T1 sequence (P50406 whole entry): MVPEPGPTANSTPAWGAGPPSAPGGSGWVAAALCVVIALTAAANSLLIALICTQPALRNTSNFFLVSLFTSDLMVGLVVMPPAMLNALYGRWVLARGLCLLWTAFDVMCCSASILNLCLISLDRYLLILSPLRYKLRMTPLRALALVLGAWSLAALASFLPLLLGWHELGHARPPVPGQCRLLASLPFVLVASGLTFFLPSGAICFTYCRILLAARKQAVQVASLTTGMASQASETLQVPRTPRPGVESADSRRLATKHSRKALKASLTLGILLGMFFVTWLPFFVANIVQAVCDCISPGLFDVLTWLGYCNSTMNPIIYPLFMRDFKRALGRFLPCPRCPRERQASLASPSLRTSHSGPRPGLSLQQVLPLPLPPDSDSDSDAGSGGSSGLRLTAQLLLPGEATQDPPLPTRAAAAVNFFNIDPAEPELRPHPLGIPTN
Kind of assay: Human 5-HT6 Receptor Binding Assay ([3H]LSD displacement, scintillation beads). The note with it: membranes of CHO-K1 cells with recombinant human 5-HT6, 4 nM [3H]LSD; Table 1, class symbols; read-out: h5-HT6 (Ki).
Regarding `O=S(=O)(c1cncc(C(F)(F)F)c1)c1ccc2c(c1)OC1CNCCC21` (stereo not shown) [Example 464], the Ki is under 500 nM. The same measure, in the same setting: next, `CC1(C)NCCc2c1oc1cc(S(=O)(=O)c3cccc4c3OC(F)(F)O4)ccc21` [Example 465]: under 500 nM; `CC1(C)NCCc2c1oc1cc(S(=O)(=O)c3cccc4c3OCCO4)ccc21` [Example 466]: under 500 nM; `O=S(=O)(c1ccc2c3c(oc2c1)CNCC3)c1cccc2c1OCCO2` [Example 467]: under 500 nM. Turning to `CC12CCNCC1Oc1cc(S(=O)(=O)c3cccc4c3OCCO4)ccc12` (stereo not shown) [Example 468], the Ki was under 500 nM. Consider `O=S(=O)(c1ccc2c(c1)OC1CNCCC21)c1cccc2c1OC(F)(F)O2` (stereo not shown) [Example 469], for which the Ki is under 500 nM. Same read-out and setting: next, `COc1c(F)cc(F)cc1S(=O)(=O)c1ccc2c3c(oc2c1)C(C)(C)NCC3` [Example 470]: under 500 nM.

`CN(C)C(=O)c1cccc(S(=O)(=O)c2ccc3c4c(oc3c2)CNCC4)c1` [Example 474, N,N-Dimethyl-3-(1,2,3,4-tetrahydro[1]benzofuro[2,3-c]pyridin-7-ylsulfonyl)benzamide hydrochloride]: the Ki is over 1000 nM. Still for that read-out and setting: next, `CN(C)C(=O)c1c(F)cccc1S(=O)(=O)c1ccc2c(c1)OC1CNCCC21` (stereo not shown) [Example 476]: over 1000 nM; `CNC(=O)c1c(F)cccc1S(=O)(=O)c1ccc2c(c1)OC1CNCCC21` (stereo not shown) [Example 477]: over 1000 nM; `CNC(=O)c1cccc(S(=O)(=O)c2ccc3c4c(oc3c2)CNCC4)c1` [Example 478]: 500 to 1000 nM. Still for that read-out and setting: next, `CN(C)C(=O)c1c(F)cccc1S(=O)(=O)c1ccc2c3c(oc2c1)CNCC3` [Example 479]: over 1000 nM.

With `COc1cc(OC)cc(S(=O)(=O)c2ccc3c(c2)OC2CNCCC32)c1` (stereo not shown) [Example 480], the Ki is under 500 nM.

On to `CC(C)Oc1cccc(S(=O)(=O)c2ccc3c(c2)OC2CNCCC32)c1F` (stereo not shown) [Example 481], for which the inhibitory constant (Ki) was under 500 nM. Still for that read-out and setting: next, `O=S(=O)(c1ccc2c(c1)OC1CNCCC21)c1cccc(OCC2CCOCC2)c1F` (stereo not shown) [Example 482]: under 500 nM; `CC(C)Oc1cccc(S(=O)(=O)c2ccc3c(c2)OC2CNCCC32)c1F` (stereo not shown) [Example 483]: under 500 nM.

`O=S(=O)(c1cc(F)cc(OCc2ccccc2)c1)c1ccc2c(c1)OC1CNCCC21` (stereo not shown) [Example 484]: the Ki is under 500 nM. The same measure, in the same setting: next, `O=S(=O)(c1ccc2c(c1)OC1CNCCC21)c1cccc(OCC2CCOCC2)c1Cl` (stereo not shown) [Example 485]: under 500 nM; `COc1c(F)cc(F)cc1S(=O)(=O)c1ccc2c(c1)OC1CNCCC21C` (stereo not shown) [Example 486]: under 500 nM. Consider `COc1cc(OC)cc(S(=O)(=O)c2ccc3c(c2)OC2CNCCC32C)c1` (stereo not shown) [Example 487], for which the Ki was under 500 nM. Still for that read-out and setting: next, `CC12CCNCC1Oc1cc(S(=O)(=O)c3cccc(F)c3F)ccc12` (stereo not shown) [Example 488]: under 500 nM. As for `COc1cc(OC)cc(S(=O)(=O)c2ccc3c(c2)OC2CNCCC32C)c1` (stereo not shown) [Example 489], the Ki is under 500 nM. Same read-out and setting: next, `COc1cc(OC)cc(S(=O)(=O)c2ccc3c(c2)OC2CNCCC32C)c1` (stereo not shown) [Example 490]: under 500 nM; `CC(C)C(=O)NCC1(C)NCCc2c1oc1cc(S(=O)(=O)c3cccc(F)c3)ccc21` (stereo not shown) [Example 491, N-[7-(3-Fluoro-benzenesulfonyl)-1-methyl-1,2,3,4-tetrahydro-benzofuro[2,3-c]pyridin-1-ylmethyl]-isobutyramide]: under 500 nM. Same read-out and setting: next, `CC(C)C1NCCc2c1oc1cc(S(=O)(=O)c3cccc(F)c3)ccc21` (stereo not shown) [Example 495]: under 500 nM. With `O=S(=O)(c1cccc(F)c1)c1ccc2c3c(oc2c1)C(C1CCOCC1)NCC3` (stereo not shown) [Example 496], the Ki is under 500 nM. On the same count and under the same terms, next, `O=S(=O)(c1cccc(F)c1)c1ccc2c3c(oc2c1)C(CCBr)NCC3` (stereo not shown) [Example 497]: under 500 nM; `COCC1NCCc2c1oc1cc(S(=O)(=O)c3cccc(F)c3)ccc21` (stereo not shown) [Example 498]: under 500 nM. Same read-out and setting: next, `CCCCC1NCCc2c1oc1cc(S(=O)(=O)c3cccc(Cl)c3)ccc21` (stereo not shown) [Example 499]: under 500 nM; `O=S(=O)(c1cccc(Cl)c1)c1ccc2c3c(oc2c1)C(C1CCOCC1)NCC3` (stereo not shown) [Example 500]: under 500 nM; `O=S(=O)(c1cccc(Cl)c1)c1ccc2c3c(oc2c1)C(CCBr)NCC3` (stereo not shown) [Example 501, 1-(2-bromoethyl)-7-[(3-chlorophenyl)sulfonyl]-1,2,3,4-tetrahydro[1]benzofuro[2,3-c]pyridine]: under 500 nM. The same measure, in the same setting: next, `COCC1NCCc2c1oc1cc(S(=O)(=O)c3cccc(Cl)c3)ccc21` (stereo not shown) [Example 502]: under 500 nM; `O=S(=O)(c1cccc(Cl)c1)c1ccc2c3c(oc2c1)C(C1CC1)NCC3` (stereo not shown) [Example 503]: under 500 nM. Take `O=S(=O)(c1cccc(Cl)c1)c1ccc2c3c(oc2c1)C(CC(F)(F)F)NCC3` (stereo not shown) [Example 504]: the Ki was under 500 nM. On the same count and under the same terms, next, `CC(C)C1NCCc2c1oc1cc(S(=O)(=O)c3cccc(Cl)c3)ccc21` (stereo not shown) [Example 505]: under 500 nM; `CCCCC1NCCc2c1oc1cc(S(=O)(=O)c3cccc(F)c3)ccc21` (stereo not shown) [Example 506]: under 500 nM. On the same count and under the same terms, next, `O=S(=O)(c1cccc(F)c1)c1ccc2c3c(oc2c1)C(CC(F)(F)F)NCC3` (stereo not shown) [Example 507]: under 500 nM.

Turning to `O=S(=O)(c1cccc(F)c1)c1ccc2c3c(oc2c1)C(C(F)F)NCC3` (stereo not shown) [Example 509], the Ki was under 500 nM. On the same count and under the same terms, next, `O=S(=O)(c1cccc(F)c1)c1ccc2c3c(oc2c1)C(C(F)(F)F)NCC3` (stereo not shown) [Example 510]: under 500 nM.

For `O=S(=O)(c1cccc(F)c1)c1ccc2oc3c(c2c1)CCNC3C(F)(F)F` (stereo not shown) [Example 511], the Ki was over 1000 nM. The same measure, in the same setting: next, `CC(C)C1NCCc2c1oc1ccc(S(=O)(=O)c3cccc(F)c3)cc21` (stereo not shown) [Example 512]: under 500 nM. Same read-out and setting: next, `O=S(=O)(c1cccc(F)c1)c1ccc2oc3c(c2c1)CCNC3C1CCCC1` (stereo not shown) [Example 513]: under 500 nM.

Turning to `O=S(=O)(c1cccc(F)c1)c1ccc2oc3c(c2c1)CCNC3CCBr` (stereo not shown) [Example 514], the Ki is under 500 nM. Same read-out and setting: next, `COCC1NCCc2c1oc1ccc(S(=O)(=O)c3cccc(F)c3)cc21` (stereo not shown) [Example 515]: over 1000 nM; `O=S(=O)(c1cccc(F)c1)c1ccc2oc3c(c2c1)CCNC3C1CCOC1` (stereo not shown) [Example 516]: under 500 nM; `O=S(=O)(c1cccc(F)c1)c1ccc2oc3c(c2c1)CCNC3C1CC1` (stereo not shown) [Example 517]: under 500 nM. For `O=S(=O)(c1cccc(F)c1)c1ccc2oc3c(c2c1)CCNC3CC(F)(F)F` (stereo not shown) [Example 518], the Ki was over 1000 nM. Still for that read-out and setting: next, `O=S(=O)(c1cccc(F)c1)c1ccc2oc3c(c2c1)CCNC3CCC(F)(F)F` (stereo not shown) [Example 519]: 500 to 1000 nM; `O=S(=O)(c1cccc(F)c1)c1ccc2oc3c(c2c1)CCNC3C1CCOCC1` (stereo not shown) [Example 520]: under 500 nM; `O=S(=O)(c1cccc(Cl)c1)c1ccc2c3c(oc2c1)C(C1CCOC1)NCC3` (stereo not shown) [Example 521]: under 500 nM. Same read-out and setting: next, `O=S(=O)(c1cccc(Cl)c1)c1ccc2c3c(oc2c1)C(CCC(F)(F)F)NCC3` (stereo not shown) [Example 522]: under 500 nM; `O=S(=O)(c1ccccc1)c1ccc2c3c(oc2c1)C(C(F)F)NCC3` (stereo not shown) [Example 523]: under 500 nM; `CC1(C(F)F)NCCc2c1oc1cc(S(=O)(=O)c3ccccc3)ccc21` (stereo not shown) [Example 524]: under 500 nM. As to `CC1(CO)NCCc2c1oc1cc(S(=O)(=O)c3ccccc3)ccc21` (stereo not shown) [Example 525], the Ki was under 500 nM.

On to `CC(=O)NCC1NCCc2c1oc1ccc(S(=O)(=O)c3cccc(F)c3)cc21` (stereo not shown) [Example 531, N-({6-[(3-fluorophenyl)sulfonyl]-1,2,3,4-tetrahydro[1]benzofuro[2,3-c]pyridin-1-yl}methyl)acetamide], for which the Ki was under 500 nM. On to `CC(=O)NCCC1NCCc2c1oc1ccc(S(=O)(=O)c3cccc(F)c3)cc21` (stereo not shown) [Example 532, N-(2-{6-[(3-fluorophenyl)sulfonyl]-1,2,3,4-tetrahydro[1]benzofuro[2,3-c]pyridin-1-yl}ethyl)acetamide], for which the Ki lay within 500 to 1000 nM.

Regarding `CC(=O)N(C)CC1NCCc2c1oc1ccc(S(=O)(=O)c3cccc(F)c3)cc21` (stereo not shown) [Example 533, N-({6-[(3-Fluorophenyl)sulfonyl]-1,2,3,4-tetrahydro[1]benzofuro[2,3-c]pyridin-1-yl}methyl)-N-methylacetamide], the Ki was under 500 nM. `CC(=O)N(C)CCC1NCCc2c1oc1ccc(S(=O)(=O)c3cccc(F)c3)cc21` (stereo not shown) [Example 534, N-(2-{6-[(3-Fluorophenyl)sulfonyl]-1,2,3,4-tetrahydro[1]benzofuro[2,3-c]pyridin-1-yl}ethyl)-N-methylacetamide]: the Ki is under 500 nM.

For the compound `O=S(=O)(c1ccccc1)c1ccc2c3c([nH]c2c1)C1(CCOCC1)NCC3` [Example 545, 7-(Phenylsulfonyl)-2,2′,3,3′,4,5′,6′,9-octahydrospiro[beta-carboline-1,4′-pyran]trifluoroacetate], the Ki is under 500 nM. Take `O=S(=O)(c1ccccc1)c1ccc2c3c([nH]c2c1)C1(CCOC1)NCC3` (stereo not drawn) [Example 546, 7-(Phenylsulfonyl)-2,3,4,4′,5′,9-hexahydrospiro[beta-carboline-1,3′-furan]trifluoroacetate]: the Ki is under 500 nM. The same measure, in the same setting: next, `Ic1ccc2c3c([nH]c2c1)C1(CCCOC1)NCC3` (stereo not drawn) [Example 547, 7-Iodo-2,3,4,5′,6′,9-hexahydro-4′H-spiro[beta-carboline-1,3′-pyran]trifluoroacetate]: under 500 nM. On the same count and under the same terms, next, `C#CCOc1cccc(S(=O)(=O)c2ccc3c(c2)OC2CNCCC32)c1` (stereo not shown) [Example 549]: under 500 nM. `N#Cc1ccccc1COc1cccc(S(=O)(=O)c2ccc3c(c2)OC2CNCCC32)c1` (stereo not shown) [Example 550]: the Ki fell in the range of 500 to 1000 nM.

Still in this assay, the particulars now being: membranes of CHO-K1 cells with recombinant human 5-HT6, 4 nM [3H]LSD; specific data; read-out: h5-HT6 (Ki).
Consider `O=S(=O)(c1cccc(F)c1)c1ccc2c3c([nH]c2c1)C(C(F)(F)F)NCC3` (stereo not drawn) [Example 527, 7-[(3-fluorophenyl)sulfonyl]-1-(trifluoromethyl)-2,3,4,9-tetrahydro-1H-beta-carboline], for which the Ki is 93 nM.
